Consider eight compounds from patent US11724987B2, “Compositions and methods of treating retinal disease” (Aldeyra Therapeutics, Inc., priority 2005, dated 2023).

For series [1] the following is noted: negative control; cited from earlier work.
For series [2] the following is noted: vendor value; cited from earlier work.
Series [3] in a line: NMR analysis of RAL reactions (Schiff base condensation and ring formation). Conditions: for tau (minutes) condense: Schiff base condensation with RAL; for tau (minutes) ring: ring formation after condensation with RAL.
The next series concerns dark adapted rats. Nature of the series: ERG analysis of dark adaptation, dose ranging protocol. As to conditions: i.p. Format: in vivo, rat. The method, then:
Dark adaptation is the recovery of visual sensitivity following exposure to light. Dark adaptation has multiple components including both fast (neuronal) processes and slow (photochemical) process. Regeneration of visual pigment is related to the slow photochemical process. Dark adaptation rates are measured for several reasons. Night blindness results from a failure to dark adapt (loss of visual light sensitivity). It is possible to find a safe dose for night vision by measuring drug effects on dark adapted visual light sensitivity.
An electroretinogram (ERG) is used measure dark adaptation under normal vs. drug conditions. ERG is the measurement of the electric field potential emitted by retinal neurons during their response to an experimentally defined light stimulus. More specifically, ERG measures retinal field potentials at the cornea after a flash of light (e.g., 50 ms). Field strengths are 10^2 to 10^3 microvolts, originating in retinal cells.
In a typical ERG analysis of dark adaptation experiment, every rat is dark adapted for hours to reach a consistent state of light sensitivity. […]
The ERG measurement is taken after a specific duration of post-bleach dark recovery (e.g., 30 min) determined previously by kinetic analysis (see FIGS. 6a and 6b). […]

In the next series the test system is human retinal vision. As to conditions: human occupational exposure, absorbed by the skin; cited from earlier work.

Each structure is given as a SMILES string.

Consider `CCN(CC)CC(=O)Nc1c(C)cccc1C` [lidocaine], for which, in series [1], the Schiff base formation entry is “does not form a Schiff base”.

As for `Nc1nccs1` [Compound 3], in series [2], the “calculated logP vendor” value is reported as 0.8.

With `CCOC(=O)c1csc(N)n1` [Compound 1], the “calculated logP vendor” value in series [2] is reported as 1.2.

As to `CC(C)(O)c1ccccc1N` [Compound 8], in series [3], the “tau (minutes) condense” value came out at 122 min and the “tau (minutes) ring” value was found to be 109 min.

In the case of `CC(C)(O)c1nc2ccc(Cl)cc2cc1N` [Compound 9], in series [3], the “tau (minutes) condense” value was determined as 320 min and the “tau (minutes) ring” value is 568 min.

For the compound `COC(=O)c1nc(N)sc1Cl` [Compound 2], the “calculated logP vendor” value in series [2] is 1.3.

In the case of `CCOC(=O)Cc1csc(N)n1` [Compound 4], the “calculated logP vendor” value in series [2] was 1.4.

Consider `CCOC(=O)c1cccc(N)c1` [Compound 6, tricaine methane sulfonate], for which the “calculated logP vendor” value in series [2] is given as 1.8. Besides, the “ERG light sensitivity of dark adapted rats” value in the series with dark adapted rats (dose ranging, FIG. 7) is “lowers light sensitivity of dark adapted rats in a dose dependent manner”. Also, the “duration of effect on vision” value in the series on dark adapted rats (rats, ERG) is “decreases after 3 hours”. Besides, the “effect on night vision” value in the series with human retinal vision is listed as “attenuates night vision reversibly”.
